# What was measured:
# [1] = monkey, multiple oral dosing, 14C-labelled; cited from earlier work
# adenosine A2A receptor = adenosine A2A receptor (Homo sapiens, UniProt P29274); experiment: EC50 at the adenosine A2A receptor; type: biochemical
# [2] = system: streptozocin induced static allodynia; experiment: streptozocin-induced diabetic neuropathy, static allodynia (von Frey hairs); type: in vivo; conditions: rats
# Procedure: Diabetes was induced by a single i.p. injection of 50 mg/kg streptozocin (Sigma, 50 mg/ml/kg in citrate buffered saline 33 mM pH 4.5). Control animals received single i.p. injection of citrate buffered saline.
# Sequence of adenosine A2A receptor (P29274 whole entry): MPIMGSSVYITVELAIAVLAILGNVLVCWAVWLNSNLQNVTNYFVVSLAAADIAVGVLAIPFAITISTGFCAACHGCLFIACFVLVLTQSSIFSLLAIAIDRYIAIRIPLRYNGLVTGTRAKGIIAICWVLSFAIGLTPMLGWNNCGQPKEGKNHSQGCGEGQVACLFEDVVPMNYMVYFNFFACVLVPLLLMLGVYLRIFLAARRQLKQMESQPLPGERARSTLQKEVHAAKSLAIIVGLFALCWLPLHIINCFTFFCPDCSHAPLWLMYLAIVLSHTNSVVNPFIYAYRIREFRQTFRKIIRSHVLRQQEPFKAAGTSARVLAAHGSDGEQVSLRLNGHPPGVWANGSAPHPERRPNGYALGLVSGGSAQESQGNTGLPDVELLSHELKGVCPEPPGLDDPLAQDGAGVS
Compound,drug level in red blood cells compared to Ribavarin [1],drug level in the liver compared to Ribavarin [1],EC50 (adenosine A2A receptor),"reversal of streptozocin induced static allodynia (PWT), all doses ([2]; 0.6-[…] po)","reversal of streptozocin induced static allodynia (PWT), top dose ([2]; top dose […] po)"
N=C(N)c1ncn([C@@H]2O[C@H](CO)[C@@H](O)[C@H]2O)n1 [Viramidine],only half in red blood cells,three times the drug level in the liver,,,
"COc1nc(N)c2ncn([C@@H]3O[C@H](CO)[C@@H](O)[C@H]3O)c2n1 [Spongosine, 2-methoxyadenosine]",,,~1000 nM,All doses were effective at reversing allodynia,fully reversed the allodynia
